Data taken from PubChem BioAssay (NCI).
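Five compound concentrations were applied to cells in 96-well plates for 48 hours; endpoints were derived by simple linear interpolation of the resulting dose-response curve. TGI marks complete inhibition of growth.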

Key:
Assay in all cases: inhibition of tumour cell growth, NCI panel, 48 h
[1] = tested on: SNB-75 CNS
[2] = tested on: HOP-62 NSCLC
[3] = tested on: UO-31 renal
[4] = tested on: NCI-H522 lung
[5] = tested on: SK-MEL-28 melanoma
[6] = tested on: SF-539 CNS
[7] = tested on: A498 renal
[8] = tested on: NCI-H226 lung
[9] = tested on: HCT-116 colon
[10] = tested on: MCF7 breast
[11] = tested on: SF-268 CNS
[12] = tested on: CAKI-1 renal
[13] = tested on: HCT-15 colon

SMILES	TGI [1] [µM]	TGI [2] [µM]	TGI [3] [µM]	TGI [4] [µM]	TGI [5] [µM]	TGI [6] [µM]	TGI [7] [µM]	TGI [8] [µM]	TGI [9] [µM]	TGI [10] [µM]	TGI [11] [µM]	TGI [12] [µM]	TGI [13] [µM]
O=C(CCc1ccc(O)c(O)c1)NCCc1ccccc1	> 100	> 100	> 74.5	43.4	> 100	> 89.9	> 100	> 100	> 31.6	35	> 100	41	> 100
O=C(c1cc(Cl)cc(Cl)c1)N(Cc1cccnc1)C(=S)N(Cc1cccnc1)C(=O)c1cc(Cl)cc(Cl)c1	> 100	75.1	56.2	49	> 100	51.4	81.2	> 100	96.5	> 100	> 100	> 100	83.3
CC1=NN(c2cccc(Cl)c2)C2(C1=Cc1cccs1)C(Cl)C(=O)N2c1nc2ccccc2s1 (configuration not stated)	86.3	> 100	69.6	38.2	> 100	30.5	43.5	53.5	34.1	69.5	47.9	84.5	51.7
N#Cc1sc2c(c1OC(=O)c1ccc(Cl)cc1)c(=O)n(-c1ccccc1)c(=S)n2-c1ccccc1	> 100	82.7		5.29	47.2	44	57.2	86.7	44.3	84.2	97.7	60.3	35.4
CN1C(=O)N/C(=C\c2ccc(S(=O)(=O)N/N=C/c3ccccc3)cc2)C1=O	> 100	> 100	> 100		> 100		> 100	> 100	> 100	68.5	> 100	> 100	> 100
COc1ccc2nc3cc([N+](=O)[O-])ccc3c(NNc3ccc([N+](=O)[O-])cc3)c2c1	> 100	> 100	> 100	> 100	> 100	> 100	0.382	> 56.4	> 100	> 100	> 100	29.6	> 100
CCOC(=O)c1cc(C2=CCNC2=O)c(-c2cc(C)no2)[nH]1	> 100	> 100	> 100	46.6	> 100	> 100	> 100	> 100	> 100	> 100	> 100	> 100	> 100
N#CC(c1ccccc1)N(CCc1ccccc1)C(=O)c1ccc(C(=O)N(CCc2ccccc2)C(C#N)c2ccccc2)cc1 (configuration not stated)	45.8		63.8		51.3	42.6	75.3	33.8	28.4	> 100	55.2	> 100	37.8
CCOC(=O)NC(Nc1ccc(S(=O)(=O)Nc2ccc(OC)nn2)cc1)(C(F)(F)F)C(F)(F)F	> 100	59.6	> 100		55.6	36.5	54.6	75.9	44.5	> 100	> 100	> 100	> 100
O=c1oc2ccc3ccccc3c2cc1-c1nc(-c2ccc([N+](=O)[O-])cc2)n[nH]1		42	> 100	> 100	> 100	39.4	> 100		> 100	> 100	4.56	> 100	> 100
O=C1C(Cl)=C(N2CCN(CCOCCO)CC2)C(=O)c2ccccc21	27.7		21.2	3.57	32.1	33.1	33.4	31	11.1	14.4	30.3	29.5	24.4
O=C(O)C1CC(C2CCCCN2)CN2CCCCC12 (configuration not stated)	> 100	> 100	> 100		> 100	> 100	> 100	> 100	> 100	> 100	> 100	> 100	> 100
C=C1C2C[C@@H]3O[C@H]4C[C@H]5O[C@@]6(C[C@@H]7O[C@]8(C[C@H](C)[C@@H]9O[C@@H]%10CC(C=O)O[C@@H]%10C[C@@H]9O8)C[C@H](C)[C@@H]7O6)C[C@H]5O[C@H]4[C@H](C)[C@H]3OC(=O)C[C@H]3CC[C@@H]4OC5[C@H]6O[C@]7(CC[C@H]8CC(=C)[C@H](CC[C@@H](C[C@H]1C)O2)O8)CC6O[C@@H]5[C@@H](O7)[C@H]4O3 (some centres not stated)	> 1	> 1	> 1	< 0.0001			> 1	0.0119	> 1	> 1		> 1	0.00609
Cc1ccc(NC(=O)CC(=O)N2N=C(N3CCCCC3)CC2c2ccccc2)cc1 (configuration not stated)	> 100	> 100	> 100	> 100	> 100		> 100	> 100	> 100	> 100	> 100	> 100	> 100
Cc1cn(CC2=NC3CCCCC3N2)c(=O)[nH]c1=O (configuration not stated)	> 100	> 100	> 100	> 100	> 100		> 100	> 100	> 100	> 100	> 100		> 100
CSCCC(NC(=O)Cc1ccc(C(=O)c2ccccc2)cc1)C(=O)N1CCN(CCCCN2c3ccccc3Sc3cc(N=[N+]=[N-])ccc32)CC1 (configuration not stated)		> 100	> 100	> 100			> 100	> 100	> 100	> 100	> 100	> 100	> 100
COc1ccc(C(OC(=O)[C@H](O[Si](C)(C)C(C)(C)C)[C@@H](NC(=O)c2ccccc2)c2ccccc2)c2ccc(OC)cc2)cc1	> 100	> 100	> 100	> 100		> 100	> 100	> 100	> 100	> 100	> 100	> 100	> 100
Fc1ccc(Oc2nc3ccccc3nc2-c2ccccc2)cc1		> 100	> 100	> 100	> 100		> 100	> 100	> 100	> 100	> 100	> 100	> 100
